{"source": "ChEMBL document CHEMBL6096675", "about": "(J Med Chem, 2025)", "key": {"[1]": {"assay": "Toxicity in SCID mouse assessed as toxicity signs at 50 mg/kg, iv twice a week", "format": "organism-based", "conditions": "in vivo"}, "[2]": {"assay": "Volume of distribution of steady state in mouse at 1 mg/kg, iv", "format": "ADME, organism-based", "conditions": "in vivo, read-out: Vdss"}, "[3]": {"assay": "Antiproliferative activity against human SMARCA4-deficient NCI-H1568 cells assessed as maximal inhibition of cell growth measured after 7 days by WST-8 assay relative to control", "format": "functional", "conditions": "time 7 day"}, "[4]": {"assay": "Volume of distribution of steady state in rat at 1 mg/kg, iv", "format": "ADME, organism-based", "conditions": "in vivo, read-out: Vdss"}, "[5]": {"tested_on": "NCI-H838", "assay": "In vivo anti-tumor activity against human NCI-H838 cells xenografted in SCID mouse assessed as assessed as inhibition of tumor growth at 10 mg/kg, iv treated for 3 weeks measured after treatment stop", "format": "functional, organism-based"}, "[6]": {"assay": "Antiproliferative activity against human SMARCA4-deficient NCI-H1944 cells assessed as inhibition of cell growth measured after 7 days by WST-8 assay", "format": "functional", "conditions": "NCI-H1944, 168 h, time 7 day"}, "[7]": {"assay": "Plasma concentration in SCID mouse xenografted with human NCI-H838 cells at 10 mg/kg, iv measured after 48 hrs by LC-MS/MS analysis", "format": "ADME, organism-based"}, "[8]": {"assay": "Toxicity in SCID mouse xenografted with human H838 cells assessed as body weight loss at 30 mg/kg, iv measured after 3 weeks", "format": "organism-based", "conditions": "in vivo, 504 h"}, "[9]": {"assay": "Antiproliferative activity against human SMARCA4-deficient NCI-H1693 cells assessed as maximal inhibition of cell growth measured after 7 days by WST-8 assay relative to control", "format": "functional", "conditions": "time 7 day"}, "[10]": {"assay": "Toxicity in SCID mouse assessed as body weight loss at 50 mg/kg, iv twice a week", "format": "organism-based", "conditions": "in vivo"}, "[11]": {"target": "T1, Cytochrome P450 2C8 (Homo sapiens, UniProt P10632)", "T1 sequence (P10632 whole entry)": "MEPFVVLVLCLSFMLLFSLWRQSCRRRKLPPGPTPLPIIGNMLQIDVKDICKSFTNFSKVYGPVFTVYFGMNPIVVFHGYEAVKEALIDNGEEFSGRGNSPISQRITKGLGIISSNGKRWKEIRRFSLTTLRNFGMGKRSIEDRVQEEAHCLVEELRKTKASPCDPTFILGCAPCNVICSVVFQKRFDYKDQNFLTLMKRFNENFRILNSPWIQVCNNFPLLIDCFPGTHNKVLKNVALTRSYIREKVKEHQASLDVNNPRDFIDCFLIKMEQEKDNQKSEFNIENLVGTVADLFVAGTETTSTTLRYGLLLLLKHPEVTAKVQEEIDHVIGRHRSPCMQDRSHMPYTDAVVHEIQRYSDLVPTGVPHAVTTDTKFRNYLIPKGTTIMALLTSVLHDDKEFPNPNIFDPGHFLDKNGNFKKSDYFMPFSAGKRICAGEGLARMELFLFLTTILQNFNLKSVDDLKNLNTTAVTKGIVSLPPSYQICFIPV", "assay": "Inhibition of CYP2C8 (unknown origin)", "format": "ADME"}, "[12]": {"assay": "Antiproliferative activity against human […] NCI-H1975 cells assessed as maximal inhibition of cell growth measured after 7 days by WST-8 assay relative to control", "format": "functional", "conditions": "time 7 day"}, "[13]": {"tested_on": "SK-MEL-5", "assay": "Antiproliferative activity against human SMARCA4-deficient SK-MEL-5 cells assessed as inhibition of cell growth measured after 7 days by WST-8 assay", "format": "functional", "conditions": "SK-MEL-5, 168 h, time 7 day"}, "[14]": {"tested_on": "NCI-H838", "assay": "In vivo anti-tumor activity against human NCI-H838 cells xenografted in SCID mouse assessed as assessed as inhibition of tumor growth at 30 mg/kg, iv treated for 3 weeks measured after treatment stop", "format": "functional, organism-based"}, "[15]": {"assay": "Drug uptake in tumor of mouse xenografted with human MV4-11 cells at 30 mg/kg, iv single dose measured after 96 hrs by LC-MS/MS analysis", "format": "ADME, organism-based, Neoplasm", "conditions": "read-out: Drug uptake"}, "[16]": {"assay": "Metabolic stability in mouse liver microsomes assessed as half life", "format": "ADME, Microsome"}, "[17]": {"assay": "AUC (0 to 24hrs) in rat at 1 mg/kg, iv", "format": "ADME, organism-based", "conditions": "in vivo"}, "[18]": {"target": "Cytochrome P450 3A4 (Homo sapiens, UniProt P08684)", "sequence (P08684 whole entry)": "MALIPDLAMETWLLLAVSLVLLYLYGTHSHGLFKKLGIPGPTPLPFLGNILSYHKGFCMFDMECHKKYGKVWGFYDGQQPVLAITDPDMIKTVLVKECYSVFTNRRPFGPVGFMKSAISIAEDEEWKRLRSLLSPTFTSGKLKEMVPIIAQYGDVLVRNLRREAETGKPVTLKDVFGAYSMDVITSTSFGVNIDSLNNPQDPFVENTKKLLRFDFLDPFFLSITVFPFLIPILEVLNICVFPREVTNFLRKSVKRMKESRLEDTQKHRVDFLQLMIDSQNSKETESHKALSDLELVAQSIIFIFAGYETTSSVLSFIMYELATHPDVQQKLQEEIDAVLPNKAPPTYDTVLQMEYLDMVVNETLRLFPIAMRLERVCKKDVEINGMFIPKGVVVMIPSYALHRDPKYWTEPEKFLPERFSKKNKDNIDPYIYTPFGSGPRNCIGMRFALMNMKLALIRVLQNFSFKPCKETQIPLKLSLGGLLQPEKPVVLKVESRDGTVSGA", "assay": "Inhibition of CYP3A4 (unknown origin) using testosterone as substrate", "format": "ADME"}, "[19]": {"assay": "Plasma concentration in mouse xenografted with human H838 cells at 10 mg/kg, iv single dose measured after 6 hrs by LC-MS/MS analysis", "format": "ADME, organism-based, NCI-H838"}, "[20]": {"assay": "Plasma concentration in mouse xenografted with human H838 cells at 10 mg/kg, iv single dose measured after 48 hrs by LC-MS/MS analysis", "format": "ADME, organism-based, NCI-H838"}, "[21]": {"assay": "Clearance in mouse at 1 mg/kg, iv", "format": "ADME, organism-based", "conditions": "in vivo"}, "[22]": {"assay": "Drug uptake in tumor of mouse xenografted with human H838 cells at 10 mg/kg, iv single dose measured after 168 hrs by LC-MS/MS analysis", "format": "ADME, organism-based, Neoplasm, NCI-H838", "conditions": "read-out: Drug uptake"}, "[23]": {"assay": "Half life in rat at 1 mg/kg, iv", "format": "ADME, organism-based", "conditions": "in vivo"}, "[24]": {"target": "T2, Cytochrome P450 1A2 (Homo sapiens, UniProt P05177)", "T2 sequence (P05177 whole entry)": "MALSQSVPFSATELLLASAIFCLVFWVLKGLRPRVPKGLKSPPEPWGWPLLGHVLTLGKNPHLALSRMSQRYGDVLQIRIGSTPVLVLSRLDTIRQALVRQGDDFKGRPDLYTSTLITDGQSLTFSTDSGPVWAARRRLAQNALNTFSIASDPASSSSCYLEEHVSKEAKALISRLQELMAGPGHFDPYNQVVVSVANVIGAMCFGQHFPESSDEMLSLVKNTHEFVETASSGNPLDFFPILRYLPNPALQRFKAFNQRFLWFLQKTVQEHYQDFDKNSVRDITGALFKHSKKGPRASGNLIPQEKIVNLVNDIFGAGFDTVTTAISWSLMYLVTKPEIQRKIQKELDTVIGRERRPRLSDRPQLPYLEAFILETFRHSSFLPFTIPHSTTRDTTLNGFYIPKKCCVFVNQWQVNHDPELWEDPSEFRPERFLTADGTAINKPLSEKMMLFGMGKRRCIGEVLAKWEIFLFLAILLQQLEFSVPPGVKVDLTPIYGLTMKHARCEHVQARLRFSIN", "assay": "Inhibition of CYP1A2 (unknown origin)", "format": "ADME"}, "[25]": {"assay": "Metabolic stability in human liver microsomes assessed as half life", "format": "ADME, Microsome"}, "[26]": {"tested_on": "NCI-H838", "assay": "In vivo anti-tumor activity against SMARCA4-deficient human NCI-H838 cells xenografted in SCID mouse assessed as assessed as inhibition of tumor growth at 10 to 30 mg/kg, iv weekly once", "format": "functional, organism-based", "conditions": "dose 10-30 mg/kg"}, "[27]": {"assay": "Plasma concentration in mouse xenografted with human MV4-11 cells at 30 mg/kg, iv single dose measured after 96 hrs by LC-MS/MS analysis", "format": "ADME, organism-based"}, "[28]": {"tested_on": "NCI-H1792", "assay": "Antiproliferative activity against human SMARCA4-wild type NCI-H1792 cells assessed as maximal inhibition of cell growth measured after 7 days by WST-8 assay relative to control", "format": "functional", "conditions": "time 7 day"}, "[29]": {"assay": "Plasma stability in mouse plasma assessed as half life", "format": "ADME, cell-free"}, "[30]": {"assay": "Antiproliferative activity against human SMARCA4-deficient NCI-H1568 cells assessed as inhibition of cell growth measured after 7 days by WST-8 assay", "format": "functional", "conditions": "NCI-H1568, 168 h, time 7 day"}}, "note": "pIC50: −log10 of the molar value. The source made the active and inactive calls. No cut-off for these calls is given here.", "data": [{"smiles": "Cc1ncsc1-c1ccc([C@H](CN2CCOCC2)NC(=O)[C@@H]2C[C@@H](O)CN2C(=O)[C@@H](n2cc([C@H]3CC[C@H](CN4CCC(c5ccc6c(c5)-n5c(nc(=O)c7c(Cl)cccc75)C65CCCCC5)CC4)CC3)nn2)C(C)(C)C)cc1", "values": [{"measurement": "Activity", "setting": "[1]", "value": "Non-toxic"}, {"measurement": "Vd", "setting": "[2]", "value": 1.9, "unit": "L/kg"}, {"measurement": "Imax", "setting": "[3]", "value": 86, "unit": "%"}, {"measurement": "Vd", "setting": "[4]", "value": 0.9, "unit": "L/kg"}, {"measurement": "Activity", "setting": "[5]", "value": "inactive"}, {"measurement": "GI50", "setting": "[6]", "value": 9.8, "unit": "nM"}, {"measurement": "concentration at 48 h", "setting": "[7]", "value": 15, "unit": "ng/mL"}, {"measurement": "Activity", "setting": "[8]", "value": "Non-toxic"}, {"measurement": "Imax", "setting": "[9]", "value": 85, "unit": "%"}, {"measurement": "Activity", "setting": "[10]", "value": "Non-toxic"}, {"measurement": "pIC50", "setting": "[11]", "value": "< 4.00"}, {"measurement": "Imax", "setting": "[12]", "value": 65, "unit": "%"}, {"measurement": "GI50", "setting": "[13]", "value": 1.5, "unit": "nM"}, {"measurement": "Activity", "setting": "[14]", "value": "inactive"}, {"measurement": "concentration at 96 h", "setting": "[15]", "value": 1640, "unit": "ng/mL"}, {"measurement": "half-life", "setting": "[16]", "value": "> 1", "unit": "h"}, {"measurement": "AUC(0-t)", "setting": "[17]", "value": 753, "unit": "ng·h/mL"}, {"measurement": "pIC50", "setting": "[18]", "value": "< 4.00"}, {"measurement": "concentration at 6 h", "setting": "[19]", "value": 585, "unit": "ng/mL"}, {"measurement": "concentration at 48 h", "setting": "[20]", "value": 15, "unit": "ng/mL"}, {"measurement": "clearance", "setting": "[21]", "value": 9.2, "unit": "mL/min/kg"}, {"measurement": "concentration at 168 h", "setting": "[22]", "value": 169, "unit": "ng/mL"}, {"measurement": "half-life", "setting": "[23]", "value": 6.3, "unit": "h"}, {"measurement": "pIC50", "setting": "[24]", "value": "< 4.00"}, {"measurement": "half-life", "setting": "[25]", "value": "> 1", "unit": "h"}, {"measurement": "Activity", "setting": "[26]", "value": "Active"}, {"measurement": "concentration at 96 h", "setting": "[27]", "value": 56, "unit": "ng/mL"}, {"measurement": "Imax", "setting": "[28]", "value": 80, "unit": "%"}, {"measurement": "half-life", "setting": "[29]", "value": "> 2", "unit": "h"}, {"measurement": "GI50", "setting": "[30]", "value": 2.2, "unit": "nM"}]}]}
